Measurements: ChEMBL document CHEMBL1132736, “Identification of optimal anion spacing for anti-HIV activity in a series of cosalane tetracarboxylates” (Bioorg Med Chem Lett, 2000)

How the values were obtained:
Settings in all cases: Homo sapiens
[1] = test system: CEM-SS; experiment: Effective concentration of compound required to reduce the cytopathic effect of HIV-1RF in CEM-SS cells by 50%; type: functional, cell-based
[2] = test system: CEM-SS; experiment: Concentration of compound required to reduce the cellular viability in uninfected CEM-SS cells by 50%; type: functional
[3] = test system: MT4; experiment: Concentration of compound required to reduce the cellular viability in uninfected MT-4 cells by 50%; type: functional
[4] = test system: MT4; experiment: Effective concentration of compound required to reduce the cytopathic effect of HIV-2ROD in MT-4 cells by 50%; type: functional, cell-based
[5] = test system: MT4; experiment: Effective concentration of compound required to reduce the cytopathic effect of HIV-1 IIIB in MT-4 cells by 50%; type: functional, cell-based

SMILES	EC50 [1]	CC50 [2]	CC50 [3]	EC50 [4]	EC50 [5]
CC(C)CCCC(C)[C@H]1CC[C@H]2[C@@H]3CCC4C[C@@H](CCC=C(c5cc(Cl)c(OCc6ccc(CC(=O)O)cc6)c(C(=O)O)c5)c5cc(Cl)c(OCc6ccc(CC(=O)O)cc6)c(C(=O)O)c5)CC[C@]4(C)[C@H]3CC[C@]12C (stereo not given in full)	1.78 µM	133 µM	> 125 µM	124 µM	4.4 µM
CC(C)CCCC(C)[C@H]1CC[C@H]2[C@@H]3CCC4C[C@@H](CCC=C(c5cc(Cl)c(OCc6ccc(-c7cccc(C(=O)O)c7)cc6)c(C(=O)O)c5)c5cc(Cl)c(OCc6ccc(-c7cccc(C(=O)O)c7)cc6)c(C(=O)O)c5)CC[C@]4(C)[C@H]3CC[C@]12C (stereo not given in full)	6.11 µM	> 200 µM	95 µM	> 95 µM	14.5 µM
CC(C)CCCC(C)[C@H]1CC[C@H]2[C@@H]3CCC4C[C@@H](CCC=C(c5cc(Cl)c(O)c(C(=O)O)c5)c5cc(Cl)c(O)c(C(=O)O)c5)CC[C@]4(C)[C@H]3CC[C@]12C (stereo not given in full)		> 200 µM	> 200 µM		
CC(C)CCCC(C)[C@H]1CC[C@H]2[C@@H]3CCC4C[C@@H](CCC=C(c5cc(Cl)c(OCc6ccc(C(=O)O)cc6)c(C(=O)O)c5)c5cc(Cl)c(OCc6ccc(C(=O)O)cc6)c(C(=O)O)c5)CC[C@]4(C)[C@H]3CC[C@]12C (stereo not given in full)		72 µM	88 µM	22 µM	
CC(C)CCCC(C)[C@H]1CC[C@H]2[C@@H]3CCC4C[C@@H](CCC=C(c5cc(Cl)c(OCc6cccc(C(=O)O)c6)c(C(=O)O)c5)c5cc(Cl)c(OCc6cccc(C(=O)O)c6)c(C(=O)O)c5)CC[C@]4(C)[C@H]3CC[C@]12C (stereo not given in full)		> 316 µM	29 µM		
CC(C)CCCC(C)[C@H]1CC[C@H]2[C@@H]3CCC4C[C@@H](CCC=C(c5cc(Cl)c(OCc6ccccc6C(=O)O)c(C(=O)O)c5)c5cc(Cl)c(OCc6ccccc6C(=O)O)c(C(=O)O)c5)CC[C@]4(C)[C@H]3CC[C@]12C (stereo not given in full)	39.8 µM	> 316 µM	37 µM		
CC(C)CCCC(C)[C@H]1CC[C@H]2[C@@H]3CCC4C[C@@H](CCC=C(c5cc(Cl)c(OCc6ccc(-c7ccc(C(=O)O)cc7)cc6)c(C(=O)O)c5)c5cc(Cl)c(OCc6ccc(-c7ccc(C(=O)O)cc7)cc6)c(C(=O)O)c5)CC[C@]4(C)[C@H]3CC[C@]12C (stereo not given in full)	> 100 µM	> 100 µM	80 µM	> 80 µM	> 80 µM
CC(C)CCCC(C)[C@H]1CC[C@H]2[C@@H]3CCC4C[C@@H](CCC=C(c5cc(Cl)c(OCc6ccc(-c7ccccc7C(=O)O)cc6)c(C(=O)O)c5)c5cc(Cl)c(OCc6ccc(-c7ccccc7C(=O)O)cc6)c(C(=O)O)c5)CC[C@]4(C)[C@H]3CC[C@]12C (stereo not given in full)	5.17 µM	> 200 µM	> 125 µM	> 125 µM	12.1 µM
